Assay results as given in patent US6645501B2, “Anti-pathogen system and methods of use thereof” (Washington University, priority 1997, dated 2003).
“Also recorded” adds a separate entry of the source.

How the values were obtained:
Assay type in all cases: cell-based
[1] = tested on: Jurkat T-cells; assay: Transduction of FITC-labeled synthetic peptides into Jurkat T-cells (rate and intracellular concentration versus TAT); details: for Intracellular Concentration / Rate Compared to TAT: FITC-labeled peptide, Jurkat T-cells; for Intracellular Concentration: at equilibrium, relative to the TAT peptide; for Rate Compared to TAT: sign relative to TAT
Method: The following artificial (i.e. synthetic) peptides were made by conventional peptide synthesis as described above. A goal of this experiment was to produce transduction domains that could transduce more effectively as judged by the intracellular concentration in transduced cells. The transduction domains were tested against a suitable control, which typically was the “natural” TAT or an Antp transduction domain. Briefly, a FITC group was synthetically attached to N-terminus of 100% of each peptide so that transduction rate and intracellular concentration of each peptide could be quantified at equilibrium. The TAT transduction domain is recognized to be alpha-helical. In each synthetic peptide sequence, an alpha-helix was modeled with varying amounts of Arg on one face. That is, a series of synthetic peptides was designed that contained varying amounts of Arg residues on one surface and substituted with Ala residues. Both Ala and Arg residues have the highest probability/energetics for maintaining an alpha-helical structure. See FIG. 7, which depicts each peptide as a helical wheel projection. The peptides are shown below in Table 2.
The synthetic peptides were transduced into Jurkat T-cells along lines described above in Example 4.

[2] = tested on: Jurkat T cells; assay: Co-transduction of uninfected Jurkat T cells with TAT-CPP32 and TAT-Protease, survival by trypan-blue exclusionary dye microscopy
Method: To test for activation of the TAT-CPP32 by TAT-Protease, 2×10^6 Jurkat T cells were placed in 2 ml of culture (RPMI media). To these cells, various combinations of control and experimental transducible proteins were added in 50-100 nM ranges, as follows:
The cells were assayed for survival at 18 hr post-addition by trypan-blue exclusionary dye microscopy. […] Thus, activation of TAT-CPP32 requires the presence of HIV protease.

[3] = tested on: Jurkat T-cells infected by HIV (strain NLHX); assay: Killing of HIV-infected Jurkat T-cells, trypan blue exclusion and microscopy
Method: About 5×10^6 Jurkat T-cells were infected by HIV (strain NLHX; about 1×10^5 to 1×10^6 infectious virus per ml). The cells were propagated in RPMI media. Approximately 4 to 7 days after the infection, the media was removed from the plates and about 35 to 45 nanomoler of the TAT-CPP32 fusion protein was added to the cells. The cells were incubated with the fusion proteins for about 30 minutes to allow transduction into the cells. […] Subsequently, media was added back to the plates and after about 18 hours post-transduction, the cells were examined for cell killing using conventional trypan blue exclusion and microscopy.
Briefly, cells were infected and transduced as described in Example 6 above. Following the transduction, about 1 μg/ml Ritonavir was added to the cell media and allowed to incubate with the cells for about 18 hours. The cells were then assayed for cell killing by conventional trypan blue exclusion and microscopy. […]

[4] = tested on: Jurkat T cells infected with the NLHX strain of HIV-I; assay: Cytotoxicity of TAT-Casp3 on HIV infected Jurkat cultures, exclusionary dye viability analysis; details: 1 μg/ml Ritonavir prior to 100 nM TAT-Casp3WT
Excerpt: To make this determination, Jurkat T cells were infected for 7-14 days with the NLHX strain of HIV-I and examined microscopically for HIV cytopathic effects. See Westervelt, P., et al., Identification of a determinant within the HIV-1 surface envelope glycoprotein critical for productive infection of cultured primary monocytes. Proc. Natl. Acad. Sci USA 88: 3097 (1991). At the start of each transduction experiment approximately 50% of the culture was HIV positive. HIV infected cultures were transduced for 16 hr with 100 nM TAT-Casp3WT or TATCasp3MUT protein and then assayed for cell viability (FIG. 13). […] In addition, we detected both the appearance of cells containing <2N DNA content and cells with condensed nuclei in TAT-Casp3 treated cells.
To determine if TAT-Casp3WT induced apoptosis was dependent on active HIV Protease in the infected cultures, HIV infected cultures were pretreated with 1 μg/ml Ritonavir prior to transduction with 100 nM TAT-Casp3WT protein (FIG. 5). […] In addition, the observed increased survival of Ritonavir treated cells is consistent with increased longevity of protease inhibitor treated HIV infected cells. See Coffin, J. M., et al. (supra).
The specific killing of HIV infected cells shown in FIG. 5 is explained in more detail as follows. Jurkat T cells were infected for 7-14 days with HIV strain NLHX, then transduced with TAT-Casp3WT (WT) or TAT-Casp3MUT (MUT) proteins for 16 hr and assayed for cell viability. […] Ctrl, control addition of PBS to cultures; abscissa, % viability of HIV positive cells in the population at start of transduction; error bars represent SD.
(§1) 1. […] See Lissy, N. A., et al. (supra). […] See Ezhevsky, S. A., et al. (supra). […] See Xiang, J., et al., (supra). […] See Xiang, J., et al., (supra). […] See Ezhevsky, S. A., et al. (supra).

[5] = tested on: Jurkat T cells; assay: FACS and confocal analysis of FITC-labeled TAT fusion proteins added to Jurkat T cells; details: FITC-labeled protein added to media of Jurkat T cells
Method: To test the ability of TAT-Casp3 proteins to transduce into cells, TAT-Casp3 proteins were conjugated to fluorescein (FITC), then added directly to the media of Jurkat T cells and analyzed by Flow Cytometry (FACS) (FIGS. 9B-C). Both TAT-Casp3WT and TAT-Casp3MUT proteins rancidly transduced into ˜100% of cells, achieving maximum intracellular concentration in less than 20 min. In addition, based on the narrow peak width before and after addition of FITC labeled proteins, individual cells within the population contain near identical intracellular concentrations of TAT-Casp3-FITC protein. […] Thus, TAT-Casp3 proteins readily transduce into 100% of all cells inca rapid and concentration-dependent fashion.
The generation and transduction of TAT fusion proteins shown in FIGS. 9A-E are explained in more detail as follows: FIG. 9A. Diagram depicting HIV cleavage site sequences and domains of TAT fusion proteins. FIGS. 9B-D. FACS kinetic analysis of fluorescein (FITC) labeled TAT-Casp3WT, TAT-Casp3MUT and TAT-HIV Pr proteins added to cells at 0, 20 and 30 min. FIG. 9E. FACS dose analysis of 3, 6, and 12 nM TAT-Casp3WT-FITC protein added to cells at I hr post-addition. Note rapid, concentration-dependent transduction of all FITC labeled protein into ˜100% of cells and near identical intracellular concentration within the population as measured by FACS peak width of control vs. transduced cells.
as §1

[6] = target: T1, HIV Protease (Human immunodeficiency virus type 1 group M subtype B, UniProt P04585); assay: In vivo substrate cleavage by co-transduced TAT-HIV Pr in Jurkat T cells, immunoblot
T1 construct: PCR cloning the HIV Protease gene from HXB2R HIV strain; 6xHis (from the pTAT vector) (N); made in house; the purified protein was added to Jurkat T cells
Method: To assay for in vivo cleavage, p 16(−) Jurkat T cells were transduced with 100 nM TAT-Ap16 or control TAT-p16 protein (no HIV cleavage site) alone or in combination with 50 nM TATHIV Pr fusion protein for 5 hr and analyzed by anti-p16 immunoblot for in vivo cleavage at the HIV A proteolytic cleavage site (FIG. 10A). […] Size analysis of the cleaved TAT-A-p 16 protein was consistent with retention of the residual HIV half site present on the N′ terminus of p 16 (FIG. 10A, see lane 4 vs. 5).
Further, the TAT-Casp3MUT protein was transduced in combination with TAT-HIV Pr protein into cells (FIG. 10B).
The in vivo processing in co-transduced cells shown in FIGS. 10A and 10B is explained in more detail as follows. FIG. 10A. Cultures of p16(−) Jurkat T cells were transduced with TAT-p 16 or TAT-A-p 16 substrate proteins in combination with TATHIV Pr proteins for 5 hr and subjected to anti-p 16 immunoblot analysis. […] WCE, HepG2 whole cell lysate containing wild type endogenous p16; A-p16, cleaved TAT-A-16 product retaining the HIV half site on p16. FIG. 10B. Cultures of Jurkat T cells were transduced with TATCasp3MUT protein (TAT-“D” site-p 17 domain-“A” site-p12 domain) alone or in combination with TAT-HIV Pr (Pr) protein as indicated and immunoblotted with anti-Caspase-3 antibodies specific for the p17 domain. TAT-D-p17-A, cleaved product of TAT-Casp3 containing the N′ terminal HIV A half site.
as §1

[7] = 50-100 nM, uninfected Jurkat T cells, 18 hr post-addition

Molecule | Intracellular Concentration [1] | Rate Compared to TAT [1] | also measured
1 (AKIWFQNRRMKWKKEN; human) [compound 1] | 1 X | = | –
2 (YGRKKRRQRRR; human) [compound 2] | 1 X | = | –
3 (YARKARRQARR; human) [compound 3] | 10 X | = | –
4 (YARAAARQARA; human) [compound 4] | 5 X | = | –
5 (YARAARRAARR; human) [compound 5] | 10 X | = | –
6 (YARAARRAARA; human) [compound 6] | 5 X | = | –
7 (YARRRRRRRRR; human) [compound 7] | 5 X | = | –
8 (YAAARRRRRRR; human) [compound 8] | 5 X | = | –
10 (CTERQANFLGKIWP; human) [compound 10] | 1 X | < | –
CC(C)c1nc(CN(C)C(=O)N[C@H](C(=O)N[C@@H](Cc2ccccc2)C[C@H](O)[C@H](Cc2ccccc2)NC(=O)OCc2cncs2)C(C)C)cs1 [Ritonavir, reference compound] | – | – | effect of the protease inhibitor on TAT-CPP32 wild type killing ([2]; added to TAT-CPP32 wild type plus TAT-Protease experiment): loss of specific TAT-CPP32 wild type killing; effect on the ability of TAT-CPP32 to kill infected cells ([3]; about 1 μg/ml Ritonavir added after transduction, about 18 hours): essentially blocked; effect of pretreatment on TAT-Casp3WT killing of HIV infected cells [4]: protection from TAT-Casp3WT induced apoptosis; also recorded: protects infected cells
RQIKIWFQNRRMKWKK [SEQ ID NO. 10, reference compound] | – | – | transduction rate relative to the TAT peptide (in words) [1]: slower transduction rate
TAT-A-p16: HIV A (p17-p24) cleavage site inserted between the TAT and p16 domains (protein, left off: small tags and cut ends, HIV A (p17-p24) cleavage site inserted between the TAT and p16 domains) GRKKRRQRRRGSQVSQNYPIVQNLQMEPAAGSSMEPSADWLATAAARGRVEEVRALLEAGALPNAPNSYGRRPIQVMMMGSARVAELLLLHGAEPNCADPATLTRPVHDAAREGFLDTLVVLHRAGARLDVRDAWGRLPVDLAEELGHRDVARYLRAAAGGTRGSNHARIDAAEGPSDIPD | – | – | cells transduced [5]: 100%; cleavage at the HIV cleavage site when co-transduced with TAT-HIV Pr ([6]; 100 nM substrate, 50 nM TAT-HIV Pr, Jurkat T cells, immunoblot): specific substrate cleavage
TAT-CPP32 mutant (protein, left off: small tags and cut ends) GRKKRRQRRRGYPYDVPDYACTERQANFLGKIWPGISLDNSYKMDYPEMGLCIIINNKNFHKSTGMTSRSGTDVDAANLRETFRNLKYEVRNKNDLTREEIVELMRDVSKEDHSKRSSFVCVLLSHGEEGIIFGTNGPVDLKKITNFFRGDRCRSLTGKPKLFIIQAMRGTELDCGIETSQVSQNYPIVQNLQGVDDDMACHKIPVEADFLYAYSTAPGYYSWRNSKDGSWFIQSLCAMLKQYADKLEFMHILTRVNRKVATEFESFSFDATFHAKKQIPCIVSMLTKELYFYH | – | – | cytotoxicity when added alone [2, 7]: minimal cytotoxicity; loss of viable cells when added plus TAT-Protease [2, 7]: not; killing of HIV-infected cells ([3]; about 35 to 45 nanomoler, about 18 hours post-transduction): not capable of killing
TAT-Dp16: TAT-p16 fusion protein containing the HIV D (p7-p1) cleavage site (protein, left off: small tags and cut ends, TAT-p16 fusion protein containing the HIV D (p7-p1) cleavage site) GRKKRRQRRRGCTERQANFLGKIWPMEPAAGSSMEPSADWLATAAARGRVEEVRALLEAGALPNAPNSYGRRPIQVMMMGSARVAELLLLHGAEPNCADPATLTRPVHDAAREGFLDTLVVLHRAGARLDVRDAWGRLPVDLAEELGHRDVARYLRAAAGGTRGSNHARIDAAEGPSDIPD | – | – | preference between HIV A site and D site ([6]; co-transduction with TAT-HIV Pr): HIV A site was preferentially cleaved over
